Article PMC4859819 (Molecular Pharmacology, 2016)

Key:
Assay in all cases: two-electrode voltage clamp, Xenopus oocytes
Assay type in all cases: cell-based
[1] = target: T1, GluN1/GluN2B receptor (rat GluN1-1a, mouse GluN2B) (Rattus norvegicus; Mus musculus, UniProt P35439+Q01097)
T1 construct: gene Grin1; full-length receptors from pcDNA3-based plasmids, Xenopus laevis oocytes, cDNA ratio 1:1; heterotetramer, usually two GluN1 and two GluN2
Source text: (§1) two-electrode voltage clamp, Xenopus oocytes on GluN1/GluN2B receptor (rat GluN1-1a, mouse GluN2B)

[2] = target: T2, GluN1/GluN2B receptor (rat GluN1-1a, mouse GluN2B) (Rattus norvegicus; Mus musculus, UniProt P35439+Q01097, P35439:L135H)
T2 construct: gene Grin1; full-length receptors from pcDNA3-based plasmids, Xenopus laevis oocytes, cDNA ratio 1:1; heterotetramer, usually two GluN1 and two GluN2
Source text: as §1

[3] = target: T3, GluN1/GluN2B receptor (rat GluN1-1a, mouse GluN2B) (Rattus norvegicus; Mus musculus, UniProt P35439+Q01097, P35439:L135W)
T3 construct: gene Grin1; full-length receptors from pcDNA3-based plasmids, Xenopus laevis oocytes, cDNA ratio 1:1; heterotetramer, usually two GluN1 and two GluN2
Source text: as §1

[4] = target: T4, GluN1/GluN2B receptor (rat GluN1-1a, mouse GluN2B) (Rattus norvegicus; Mus musculus, UniProt P35439+Q01097, P35439:Y109C)
T4 construct: gene Grin1; full-length receptors from pcDNA3-based plasmids, Xenopus laevis oocytes, cDNA ratio 1:1; heterotetramer, usually two GluN1 and two GluN2
Source text: as §1

[5] = target: T5, GluN1/GluN2B receptor (rat GluN1-1a, mouse GluN2B) (Rattus norvegicus; Mus musculus, UniProt P35439+Q01097, P35439:Y109S)
T5 construct: gene Grin1; full-length receptors from pcDNA3-based plasmids, Xenopus laevis oocytes, cDNA ratio 1:1; heterotetramer, usually two GluN1 and two GluN2
Source text: as §1

[6] = target: T6, GluN1/GluN2B receptor (rat GluN1-1a, mouse GluN2B) (Rattus norvegicus; Mus musculus, UniProt P35439+Q01097, Q01097:A135G)
T6 construct: gene Grin1; full-length receptors from pcDNA3-based plasmids, Xenopus laevis oocytes, cDNA ratio 1:1; heterotetramer, usually two GluN1 and two GluN2
Source text: as §1

[7] = target: T7, GluN1/GluN2B receptor (rat GluN1-1a, mouse GluN2B) (Rattus norvegicus; Mus musculus, UniProt P35439+Q01097, Q01097:A135P)
T7 construct: gene Grin1; full-length receptors from pcDNA3-based plasmids, Xenopus laevis oocytes, cDNA ratio 1:1; heterotetramer, usually two GluN1 and two GluN2
T7 sequence (Q01097 27-1482 A135P, other chains not shown): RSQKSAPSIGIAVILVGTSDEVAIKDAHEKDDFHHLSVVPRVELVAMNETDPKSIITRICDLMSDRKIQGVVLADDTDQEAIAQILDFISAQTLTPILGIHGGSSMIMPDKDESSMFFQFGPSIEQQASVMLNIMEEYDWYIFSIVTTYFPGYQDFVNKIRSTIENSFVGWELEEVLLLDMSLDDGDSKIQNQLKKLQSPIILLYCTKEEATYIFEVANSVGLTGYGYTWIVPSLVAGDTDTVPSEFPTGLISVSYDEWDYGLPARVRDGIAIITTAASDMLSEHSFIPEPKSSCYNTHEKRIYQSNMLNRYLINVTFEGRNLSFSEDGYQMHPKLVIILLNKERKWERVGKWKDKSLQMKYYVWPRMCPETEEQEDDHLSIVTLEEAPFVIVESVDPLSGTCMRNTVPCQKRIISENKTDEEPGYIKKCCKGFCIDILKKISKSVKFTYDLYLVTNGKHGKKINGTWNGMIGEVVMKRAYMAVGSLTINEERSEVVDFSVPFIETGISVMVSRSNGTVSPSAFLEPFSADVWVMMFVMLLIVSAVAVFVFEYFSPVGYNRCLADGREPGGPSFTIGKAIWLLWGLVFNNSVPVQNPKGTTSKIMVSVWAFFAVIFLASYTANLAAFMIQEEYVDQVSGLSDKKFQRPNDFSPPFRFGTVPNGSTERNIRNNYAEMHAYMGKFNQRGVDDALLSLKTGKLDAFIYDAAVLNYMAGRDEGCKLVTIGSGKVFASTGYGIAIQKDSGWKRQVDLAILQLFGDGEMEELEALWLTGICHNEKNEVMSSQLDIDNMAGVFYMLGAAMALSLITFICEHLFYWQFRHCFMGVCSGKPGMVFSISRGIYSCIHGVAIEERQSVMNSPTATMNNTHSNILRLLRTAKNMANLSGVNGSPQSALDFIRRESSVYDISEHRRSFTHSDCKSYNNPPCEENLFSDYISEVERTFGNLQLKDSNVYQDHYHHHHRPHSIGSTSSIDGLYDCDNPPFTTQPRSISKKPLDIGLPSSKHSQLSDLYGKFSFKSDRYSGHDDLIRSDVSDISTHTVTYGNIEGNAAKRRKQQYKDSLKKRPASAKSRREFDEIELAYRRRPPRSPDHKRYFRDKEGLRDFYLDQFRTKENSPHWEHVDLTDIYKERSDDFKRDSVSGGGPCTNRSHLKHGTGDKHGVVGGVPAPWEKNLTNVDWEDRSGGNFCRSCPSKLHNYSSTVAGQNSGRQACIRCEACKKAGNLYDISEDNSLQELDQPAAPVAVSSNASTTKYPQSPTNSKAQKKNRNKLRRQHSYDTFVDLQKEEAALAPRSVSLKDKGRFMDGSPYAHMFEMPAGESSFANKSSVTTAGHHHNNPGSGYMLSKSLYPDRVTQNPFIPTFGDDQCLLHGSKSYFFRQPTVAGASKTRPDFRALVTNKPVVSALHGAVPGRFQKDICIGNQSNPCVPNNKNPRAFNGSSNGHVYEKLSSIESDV
Source text: as §1

[8] = target: T8, GluN1/GluN2B receptor (rat GluN1-1a, mouse GluN2B) (Rattus norvegicus; Mus musculus, UniProt P35439+Q01097, Q01097:F114S)
T8 construct: gene Grin1; full-length receptors from pcDNA3-based plasmids, Xenopus laevis oocytes, cDNA ratio 1:1; heterotetramer, usually two GluN1 and two GluN2
Source text: as §1

[9] = target: T9, GluN1/GluN2B receptor (rat GluN1-1a, mouse GluN2B) (Rattus norvegicus; Mus musculus, UniProt P35439+Q01097, Q01097:F176A)
T9 construct: gene Grin1; full-length receptors from pcDNA3-based plasmids, Xenopus laevis oocytes, cDNA ratio 1:1; heterotetramer, usually two GluN1 and two GluN2
T9 sequence (Q01097 27-1482 F176A, other chains not shown): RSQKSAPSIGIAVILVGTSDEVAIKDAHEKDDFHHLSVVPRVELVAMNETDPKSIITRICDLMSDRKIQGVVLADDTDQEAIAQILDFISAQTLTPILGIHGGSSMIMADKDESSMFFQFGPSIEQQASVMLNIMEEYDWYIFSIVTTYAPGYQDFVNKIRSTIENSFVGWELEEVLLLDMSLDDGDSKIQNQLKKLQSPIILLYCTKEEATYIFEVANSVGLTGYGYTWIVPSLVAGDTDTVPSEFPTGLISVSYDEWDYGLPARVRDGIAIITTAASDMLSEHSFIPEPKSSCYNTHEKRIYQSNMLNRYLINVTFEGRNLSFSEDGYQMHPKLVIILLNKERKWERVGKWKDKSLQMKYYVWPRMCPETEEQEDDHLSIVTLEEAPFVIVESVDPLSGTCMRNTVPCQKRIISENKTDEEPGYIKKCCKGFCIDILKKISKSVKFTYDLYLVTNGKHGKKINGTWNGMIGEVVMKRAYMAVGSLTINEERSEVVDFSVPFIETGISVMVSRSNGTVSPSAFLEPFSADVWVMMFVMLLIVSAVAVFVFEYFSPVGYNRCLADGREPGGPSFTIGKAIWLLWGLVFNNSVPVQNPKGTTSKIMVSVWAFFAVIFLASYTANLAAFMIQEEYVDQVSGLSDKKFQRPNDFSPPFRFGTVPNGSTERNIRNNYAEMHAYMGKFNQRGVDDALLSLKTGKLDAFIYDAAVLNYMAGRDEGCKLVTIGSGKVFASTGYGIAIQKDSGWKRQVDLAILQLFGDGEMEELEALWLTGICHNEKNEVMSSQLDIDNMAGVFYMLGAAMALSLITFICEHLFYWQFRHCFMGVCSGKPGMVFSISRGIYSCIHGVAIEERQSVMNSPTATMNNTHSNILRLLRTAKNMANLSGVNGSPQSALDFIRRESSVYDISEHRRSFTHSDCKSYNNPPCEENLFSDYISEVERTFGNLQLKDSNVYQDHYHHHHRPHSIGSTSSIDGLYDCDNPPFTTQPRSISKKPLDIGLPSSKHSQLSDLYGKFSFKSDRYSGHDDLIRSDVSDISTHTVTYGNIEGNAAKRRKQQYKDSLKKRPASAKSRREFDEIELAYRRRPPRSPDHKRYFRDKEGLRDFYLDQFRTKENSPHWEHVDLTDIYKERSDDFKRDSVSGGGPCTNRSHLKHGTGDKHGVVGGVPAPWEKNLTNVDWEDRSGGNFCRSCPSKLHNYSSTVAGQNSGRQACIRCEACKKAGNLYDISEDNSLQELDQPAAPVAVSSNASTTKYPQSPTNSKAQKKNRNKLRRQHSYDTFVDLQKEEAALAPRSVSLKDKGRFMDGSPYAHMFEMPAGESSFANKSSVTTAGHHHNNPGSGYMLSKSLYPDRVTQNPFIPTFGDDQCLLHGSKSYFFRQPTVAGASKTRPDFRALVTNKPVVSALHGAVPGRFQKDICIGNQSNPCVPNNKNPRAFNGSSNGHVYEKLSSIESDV
Source text: as §1

[10] = target: T10, GluN1/GluN2B receptor (rat GluN1-1a, mouse GluN2B) (Rattus norvegicus; Mus musculus, UniProt P35439+Q01097, Q01097:P177C)
T10 construct: gene Grin1; full-length receptors from pcDNA3-based plasmids, Xenopus laevis oocytes, cDNA ratio 1:1; heterotetramer, usually two GluN1 and two GluN2
Source text: as §1

[11] = target: T11, GluN1/GluN2B receptor (rat GluN1-1a, mouse GluN2B) (Rattus norvegicus; Mus musculus, UniProt P35439+Q01097, Q01097:Q110G)
T11 construct: gene Grin1; full-length receptors from pcDNA3-based plasmids, Xenopus laevis oocytes, cDNA ratio 1:1; heterotetramer, usually two GluN1 and two GluN2
T11 sequence (Q01097 27-1482 Q110G, other chains not shown): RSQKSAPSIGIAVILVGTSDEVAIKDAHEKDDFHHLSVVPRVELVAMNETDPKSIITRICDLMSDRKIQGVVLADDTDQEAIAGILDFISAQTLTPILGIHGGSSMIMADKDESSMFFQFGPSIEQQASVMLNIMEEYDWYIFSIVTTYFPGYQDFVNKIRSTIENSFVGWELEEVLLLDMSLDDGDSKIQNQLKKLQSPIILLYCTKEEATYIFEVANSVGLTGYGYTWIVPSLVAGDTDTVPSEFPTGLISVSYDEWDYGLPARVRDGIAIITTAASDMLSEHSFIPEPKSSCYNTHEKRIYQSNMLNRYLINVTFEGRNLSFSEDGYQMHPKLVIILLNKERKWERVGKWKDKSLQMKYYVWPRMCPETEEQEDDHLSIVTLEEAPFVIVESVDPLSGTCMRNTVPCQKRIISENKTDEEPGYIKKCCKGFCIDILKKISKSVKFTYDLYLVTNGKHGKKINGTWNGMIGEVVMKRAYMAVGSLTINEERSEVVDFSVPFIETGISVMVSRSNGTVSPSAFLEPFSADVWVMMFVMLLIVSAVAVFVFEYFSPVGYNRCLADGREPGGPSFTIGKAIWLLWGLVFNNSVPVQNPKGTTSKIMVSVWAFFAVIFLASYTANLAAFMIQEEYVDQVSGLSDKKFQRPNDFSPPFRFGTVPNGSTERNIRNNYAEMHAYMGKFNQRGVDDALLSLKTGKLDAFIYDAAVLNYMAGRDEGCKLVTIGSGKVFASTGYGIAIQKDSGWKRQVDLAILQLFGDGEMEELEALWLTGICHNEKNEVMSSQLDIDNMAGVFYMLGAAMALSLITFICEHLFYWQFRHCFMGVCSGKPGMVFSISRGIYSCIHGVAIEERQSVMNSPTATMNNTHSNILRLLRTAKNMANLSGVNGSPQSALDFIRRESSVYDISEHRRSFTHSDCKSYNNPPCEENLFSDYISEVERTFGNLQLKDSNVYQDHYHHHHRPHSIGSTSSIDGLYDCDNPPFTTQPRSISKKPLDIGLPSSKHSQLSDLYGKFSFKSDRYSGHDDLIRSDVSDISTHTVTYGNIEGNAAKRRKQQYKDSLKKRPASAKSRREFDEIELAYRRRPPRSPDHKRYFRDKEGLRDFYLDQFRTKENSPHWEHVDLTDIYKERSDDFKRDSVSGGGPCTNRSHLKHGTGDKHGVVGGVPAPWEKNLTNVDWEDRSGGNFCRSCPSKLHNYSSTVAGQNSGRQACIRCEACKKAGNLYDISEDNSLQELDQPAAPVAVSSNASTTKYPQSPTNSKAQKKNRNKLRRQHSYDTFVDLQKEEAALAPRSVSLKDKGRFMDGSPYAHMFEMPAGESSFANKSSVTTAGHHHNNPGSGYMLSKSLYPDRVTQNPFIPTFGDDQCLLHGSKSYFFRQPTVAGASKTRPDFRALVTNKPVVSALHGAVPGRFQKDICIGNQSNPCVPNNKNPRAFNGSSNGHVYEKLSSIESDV
Source text: as §1

## Cc1nccn1Cc1cc(-c2ccc(F)c(C(F)F)c2)cnn1 [compound 1, 5-(3-(difluoromethyl)-4-fluorophenyl)-3-((2-methyl-1H-imidazol-1-yl)methyl)pyridazine]
[1]
  IC50: 12 ± 0.2 nM
[2]
  IC50: 71 ± 7 nM
[3]
  IC50: 9 ± 1 nM
[4]
  IC50: 7300 ± 260 nM
[5]
  IC50: 9620 ± 700 nM
[6]
  IC50: 72 ± 7 nM
[7]
  IC50: 404 ± 15 nM
[8]
  IC50: 676 ± 10 nM
[9]
  IC50: 11400 ± 1000 nM
[10]
  IC50: 75 ± 12 nM
[11]
  IC50: 502 ± 14 nM
